In ChEMBL document CHEMBL6109069 (J Med Chem, 2025):
Calls of active or inactive are those of the source. No cut-off for these calls is given here. Starred links: 1 amine or outer side, 2 acyl side, 3 side chain; linkers in the order of their positions; H or OH if unused. Non-standard residues stand in square brackets, D forms with d. Residues, ends and D or L forms follow the SMILES beside them. *: point of attachment. X1 = CCC(=O)C[C@@H](O)C[C@@H](C)C[C@H](N[*:1])C(=O)[*:2]; Hexenoyl(2E,4S-Me) = CC[C@H](C)/C=C/C(=O)*; Leu(3R-OH) = CC(C)[C@@H](O)[C@H](N)C(=O)O; NH((S)CH(Me)CH2NMe2) = C[C@@H](CN(C)C)N*; Pro(4S-Me) = C[C@@H]1CN[C@H](C(=O)O)C1; NH(1-CH2NMe2-cBu) = CN(C)CC1(N*)CCC1; Benzoyl(4-F) = O=C(c1ccc(F)cc1)*; hCha = N[C@@H](CCC1CCCCC1)C(=O)O; Aib = CC(C)(N)C(=O)O; βAla = NCCC(=O)O

What was measured:
Trypanosoma cruzi = assay: Antitrypanosomal activity against Trypanosoma cruzi Tulahuen C4 incubated for 4 days; type: functional, organism-based; conditions: Tulahuen C4, 96 h
Leishmania donovani = assay: Antitrypanosomal activity against Leishmania donovani MHOM/ET/67/L82 incubated for 72 hrs by resazurin staining based analysis; type: functional, organism-based; conditions: MHOM/ET/67/L82, 72 h
Fibroblast [1] = assay: Induction of mitochondrial uncoupling activity in human Fibroblast cells assessed as increase in oxygen consumption rate by measuring fluorescence intensity at 25 nM measured up to 80 mins by O2k-type oxygraph analysis; type: functional, cell-based
[2] = Inhibition of Bovine heart ATP synthase assessed as inhibition constant by Michaelis-Menten plot analysis; parameters: species or system Bos taurus; conditions: read-out: Ki
[3] = test system: Trypanosoma brucei rhodesiense; assay: Antitrypanosomal activity against Trypanosoma brucei rhodesiense STIB 900; type: functional, organism-based
Mitochondrial membrane [4] = assay: Induction of mitochondrial membrane potential in bovine heart assessed as change in fluorescence intensity at 200 nM by safranin O staining based eclipse fluorescence spectrophotometric analysis; type: cell membranes; conditions: Bos taurus
[5] = Reduction in respiration rate in human Fibroblast cells assessed as decrease in coupling efficiency at 50 nM incubated up to 80 mins; type: functional; parameters: scale not given: the % may be the effect or the level left; conditions: 1.333 h
Lipid bilayer [6] = assay: Disruption of membrane integrity in bacterial cell membrane mimic POPC/POPG LUVs assessed as HTPS leakage at 5 uM measured after 1 mins
Mitochondrial membrane [7] = assay: Induction of mitochondrial membrane depolarization in bovine heart assessed as change in fluorescence intensity at 25 nM by safranin O staining based eclipse fluorescence spectrophotometric analysis; type: cell membranes; conditions: Bos taurus
Lipid bilayer [8] = assay: Disruption of membrane integrity in bacterial cell membrane mimic POPC/POPG LUVs assessed as calcein leakage at 1.3 uM measured for 1 mins by fluorescence spectroscopy analysis
Mitochondrial membrane [9] = assay: Induction of mitochondrial membrane depolarization in bovine heart assessed as change in fluorescence intensity at 100 to 200 nM by safranin O staining based eclipse fluorescence spectrophotometric analysis; type: cell membranes; conditions: Bos taurus, dose 100-200 nM
Trypanosoma brucei [10] = assay: Induction of mitochondrial uncoupling activity in Trypanosoma brucei assessed as increase in oxygen consumption rate by measuring fluorescence intensity at 25 nM measured up to 80 mins by O2k-type oxygraph analysis; type: functional, organism-based
Plasmodium falciparum = assay: Antiplasmodial activity against Plasmodium falciparum NF54 incubated for 48 hrs; type: functional, organism-based; conditions: NF54, 48 h
[11] = Inhibition of Escherichia coli ATP synthase assessed as inhibition constant
Fibroblast [12] = assay: Induction of mitochondrial uncoupling activity in human Fibroblast cells assessed as increase in oxygen consumption rate by measuring fluorescence intensity by O2k-type oxygraph analysis; type: functional, cell-based
Mitochondrial membrane [13] = assay: Induction of mitochondrial membrane hyperpolarization in bovine heart assessed as change in fluorescence intensity at 25 nM by safranin O staining based eclipse fluorescence spectrophotometric analysis; type: cell membranes; conditions: Bos taurus
[14] = Cytotoxicity against rat L6 cells; type: toxicity, cell-based
[15] = Toxicity in po dosed mouse assessed as lethal dose; type: organism-based; conditions: in vivo
Fibroblast [16] = assay: Inhibition of ATP synthase in human Fibroblast cells assessed as decrease in oxygen consumption at 50 nM by OROBOROS instrument based analysis; type: cell-based
Lipid bilayer [17] = assay: Disruption of membrane integrity in bacterial cell membrane mimic POPC/POPG LUVs assessed as HTPS leakage at 1 uM measured for 1 mins by fluorescence spectroscopy analysis
Trypanosoma brucei [18] = assay: Induction of mitochondrial uncoupling activity in Trypanosoma brucei assessed as increase in oxygen consumption rate by measuring fluorescence intensity by O2k-type oxygraph analysis; type: functional, organism-based
[19] = Cytotoxicity against rat L6 cells assessed as cell viability; type: toxicity, cell-based
[20] = Inhibition of yeast ATP synthase assessed as inhibition constant by Michaelis-Menten plot analysis; parameters: species or system Saccharomyces cerevisiae
[21] = Toxicity in ip dosed mouse assessed as lethal dose; type: organism-based; conditions: in vivo
Lipid bilayer [22] = assay: Disruption of membrane integrity in bacterial cell membrane mimic POPC/POPG LUVs assessed as HTPS leakage at 5 uM measured for 1 mins by fluorescence spectroscopy analysis

CC(C)C[C@H](NC(=O)[C@H](CCC1CCCCC1)NC(=O)[C@@H]1CCCN1C(=O)c1ccc(F)cc1)C(=O)NC(C)(C)C(=O)N[C@@H](CC(C)C)C(=O)N[C@@H](CC(C)C)C(=O)NC(C)(C)C(=O)NC(C)(C)C(=O)NCCC(=O)NC1(CN(C)C)CCC1 ({Benzoyl(4-F)}-P[hCha]L[Aib]LL[Aib][Aib][βAla]-{NH(1-CH2NMe2-cBu)})
IC50 (Trypanosoma cruzi): 0.114 µM | IC50 (Leishmania donovani): 0.0049 µM | Activity (Fibroblast [1]): inactive | Ki [2]: 0.265 µM | IC50 [3]: 0.00039 µM | Activity (Mitochondrial membrane [4]): Active | Activity [5]: ~3% | Activity (Lipid bilayer [6]): Active | Activity (Mitochondrial membrane [7]): Active | Activity (Lipid bilayer [8]): Active | Activity (Mitochondrial membrane [9]): Active | Activity (Trypanosoma brucei [10]): inactive | IC50 (Plasmodium falciparum): 0.0054 µM | Ki [11]: ~0.26 µM

CCC(=O)C[C@@H](O)C[C@@H](C)C[C@H](NC(=O)[C@@H]1C[C@H](C)CN1C(=O)/C=C/[C@@H](C)CC)C(=O)N[C@H](C(=O)NC(C)(C)C(=O)N[C@@H](CC(C)C)C(=O)N[C@@H](CC(C)C)C(=O)NC(C)(C)C(=O)NC(C)(C)C(=O)NCCC(=O)N[C@@H](C)CN(C)C)[C@H](O)C(C)C ({Hexenoyl(2E,4S-Me)}-[Pro(4S-Me)][X1][Leu(3R-OH)][Aib]LL[Aib][Aib][βAla]-{NH((S)CH(Me)CH2NMe2)})
Activity (Fibroblast [12]): Active | IC50 (Trypanosoma cruzi): 0.023 µM | IC50 (Leishmania donovani): 0.0011 µM | Activity (Mitochondrial membrane [13]): Active | Ki [2]: 0.08 µM | IC50 [3]: 0.00025 µM | IC50 [14]: 0.259 µM | Activity [5]: ~60% | LD50 [15]: 5.4 mg/kg | inhibition (Fibroblast [16]): Active | Activity (Lipid bilayer [17]): inactive | Activity (Trypanosoma brucei [18]): Active | Activity (Lipid bilayer [8]): Active | IC50 [19]: 0.259 µM | Ki [20]: ~0.03 µM | LD50 [21]: 1.8 mg/kg | IC50 (Plasmodium falciparum): 0.00061 µM | Ki [11]: > 1 µM | Activity (Lipid bilayer [22]): inactive
